Experimental data from ChEMBL document CHEMBL3864123, “Drug discovery strategies to outer membrane targets in Gram-negative pathogens” (Bioorg Med Chem, 2016).
Converted amounts (≈) assume the structure as drawn. *1 amine or outer side, *2 acyl side, *3 side chain or, on linkers, in order; H or OH if unused. Where a SMILES comes first, the peptide text is derived from it. Bridges are numbered along the chain shown (N, C = ends). [ ]: non-standard residue; d: D form. The star is where a group is joined. X1 = CC(C)=CCc1ccc(Cl)c2[nH]cc(CC(N[*:1])C(=O)[*:2])c12; Trp(7-Cl) = N[CH](Cc1c[nH]c2c(Cl)cccc12)C(=O)O; Malonyl = O=C(CC(=O)[*:2])[*:1]; Cya = N[CH](CS(=O)(=O)O)C(=O)O; dDab = NCC[C@@H](N)C(=O)O; Octanoyl = CCCCCCCC(=O)*; Orn = NCCC[C@H](N)C(=O)O; Dab = NCC[C@H](N)C(=O)O

Experiments:
[1] = Inhibition of Escherichia coli LpxA after 15 mins by fluorescence polarization assay
[2] = Inhibition of Escherichia coli His6-tagged LpxD after 15 mins by fluorescence polarization assay
Pseudomonas aeruginosa [3] = assay: Antibacterial activity against Pseudomonas aeruginosa PAO1 measured after 16 to 20 hrs by microbroth dilution assay; type: functional
Staphylococcus aureus [4] = assay: Antibacterial activity against methicillin-resistant Staphylococcus aureus by CLSI broth dilution method; type: functional
Pseudomonas aeruginosa [5] = assay: Potentiation of colistin-induced antibacterial activity against Pseudomonas aeruginosa PAO1 infected in BALB/c mouse assessed as log reduction in bacterial burden in lungs at 2.08 mg/kg, it measured after 6 hrs by serial dilution method; type: functional, Lung
Pseudomonas aeruginosa [6] = assay: Antibacterial activity against Pseudomonas aeruginosa ATCC 27853 by microdilution method; type: functional
Escherichia coli [7] = assay: Antibacterial activity against Escherichia coli by agar dilution method; type: functional
Escherichia coli [8] = assay: Antibacterial activity against acrAB-efflux pump deficit Escherichia coli; type: functional
Escherichia coli [9] = assay: Antibacterial activity against wild-type Escherichia coli; type: functional
Pseudomonas aeruginosa [10] = assay: Antibacterial activity against Pseudomonas aeruginosa PAS2006 harboring SPase P84S mutant by CLSI microbroth dilution assay; type: functional
Escherichia coli [11] = assay: Antibacterial activity against Escherichia coli PAS0232 harboring SPase P84S mutant by CLSI microbroth dilution assay; type: functional
[12] = tested on: Staphylococcus epidermidis; assay: Antibacterial activity against Staphylococcus epidermidis PAS9001 harboring SPase S29P mutant by CLSI microbroth dilution assay; type: functional
[13] = tested on: Staphylococcus epidermidis; assay: Antibacterial activity against Staphylococcus epidermidis RP62A harboring wild-type SPase by CLSI microbroth dilution method; type: functional
[14] = Selectivity ratio of MIC for Staphylococcus epidermidis PAS9001 harboring SPase S29P mutant to MIC for Staphylococcus epidermidis RP62A; type: functional
[15] = tested on: Staphylococcus epidermidis; assay: Antibacterial activity against Staphylococcus epidermidis PAS8001 harboring SPase P29S mutant by CLSI microbroth dilution method; type: functional
Escherichia coli [16] = assay: Antibacterial activity against tolC-deficit Escherichia coli measured after 16 hrs by serial dilution method; type: functional
Escherichia coli [17] = assay: Antibacterial activity against tolC-deficit Escherichia coli in presence of human serum albumin; type: functional
Pseudomonas aeruginosa [18] = assay: Antibacterial activity against wild-type Pseudomonas aeruginosa measured after 16 hrs by serial dilution method; type: functional
Escherichia coli [19] = assay: Antibacterial activity against wild-type Escherichia coli measured after 16 hrs by serial dilution method; type: functional
Pseudomonas aeruginosa [20] = assay: Antibacterial activity against MexABCDXY-deficit Pseudomonas aeruginosa measured after 16 hrs by serial dilution method; type: functional
Escherichia coli [21] = assay: Antibacterial activity against Escherichia coli after 16 to 20 hrs by agar well diffusion method; type: functional
[22] = Hemolytic activity against human RBC; type: ADME, cell-based; conditions: erythrocyte
Acinetobacter baumannii = assay: Antibacterial activity against Acinetobacter baumannii; type: functional
Pseudomonas aeruginosa [23] = assay: Antibacterial activity against Pseudomonas aeruginosa; type: functional
Staphylococcus aureus [24] = assay: Antibacterial activity against Staphylococcus aureus; type: functional

H-TNLYMLPKWDIP-NH2
Kd [1]: 20 µM | Kd [2]: 6 µM

C[C@@H](O)[C@H](NC(=O)c1ccc(C#Cc2ccc(CN3CCOCC3)cc2)cc1)C(=O)NO
MIC (Pseudomonas aeruginosa [3]): 1 µg/mL (≈ 2.29 µM)

CCCC(C)/C=C(/C)C(=O)OC(CCCCCCC/C=C/C(=O)NCCC(=O)NC(CS(=O)(=O)O)C(=O)N(C)C1C(=O)NC(C)C(=O)NC(C(=O)O)Cc2ccc(OS(=O)(=O)O)c(c2)-c2cc1cc(OS(=O)(=O)O)c2OC1O[C@H](C)[C@@H](O)[C@H](O)[C@@H]1O)CCC(C)C (some centres not stated)
MIC (Staphylococcus aureus [4]): 16 to 128 µg/mL (≈ 11.9 to 94.9 µM)

CC[C@H](C)[C@H](NC(=O)[C@@H](N)Cc1ccccc1)C(=O)N[C@@H](CCCNC(=N)N)C(=O)N[C@@H](CC(C)C)C(N)=O (H-FIRL-NH2)
Activity (Pseudomonas aeruginosa [5]): 1 log10CFU/ml

CC[C@H](C)[C@@H]1NC(=O)[C@H](Cc2c[nH]c3ccccc23)NC(=O)[C@H]([C@@H](C)O)NC(=O)[C@@H]2CCCN2C(=O)[C@H]2CCCN2C(=O)[C@H](CO)NC(=O)[C@H](C)NC(=O)[C@H](CCN)NC(=O)[C@H](CCN)NC(=O)[C@H](Cc2c[nH]c3ccccc23)NC(=O)[C@H](CCN)NC(=O)[C@@H](CCN)NC(=O)[C@H](CCCN)NC(=O)[C@H](CCN)NC1=O [MUREPAVADIN] (cyclo(TWI[Dab][Orn][dDab][Dab]W[Dab][Dab]AS[dP]P))
MIC (Pseudomonas aeruginosa [6]): 0.008 µg/mL (≈ 0.00515 µM)

CC(C)(N)[C@H](NC(=O)c1ccc(C#CC#C[C@@H]2C[C@H]2CO)cc1)C(=O)NO [ACHN-975]
MIC (Pseudomonas aeruginosa [6]): 0.25 µg/mL (≈ 0.677 µM)

CCCCCCCCCC[C@H]1OC(=O)CNC(=O)[C@H]([C@@H](C)O)NC(=O)[C@H](CO)NC(=O)[C@H]([C@H](C)CC)NC(=O)[C@H](CC(C)C)N(C)C(=O)[C@@H]1C
MIC (Escherichia coli [7]): 1.56 µg/mL (≈ 2.19 µM)

Sc1ccccc1C1=NCCCN1
MIC (Escherichia coli [8]): 8 µg/mL (≈ 41.6 µM) | MIC (Escherichia coli [9]): 16 µg/mL (≈ 83.2 µM)

CCCCCCCCCCCCCCCC(=O)N(C)[C@H](CO)C(=O)N[C@H](C)C(=O)NCC(=O)N(C)[C@@H]1C(=O)N[C@@H](C)C(=O)N[C@@H](C(=O)O)Cc2ccc(O)c(c2)-c2cc1ccc2O
MIC (Pseudomonas aeruginosa [10]): 8 µg/mL (≈ 9.08 µM) | MIC (Escherichia coli [11]): 4 µg/mL (≈ 4.54 µM) | MIC [12]: 8 µg/mL (≈ 9.08 µM) | MIC [13]: 0.25 µg/mL (≈ 0.284 µM) | Ratio [14]: 32 | MIC [15]: 2 µg/mL (≈ 2.27 µM)

CN(C)c1ccc(C2=NCCCN2)c(S)c1
MIC (Escherichia coli [8]): 8 µg/mL (≈ 34 µM) | MIC (Escherichia coli [9]): 16 µg/mL (≈ 68 µM)

CC(C)(C)c1nc(-c2ccc3c(c2)OCCO3)c(-c2ccncc2)[nH]1
MIC (Escherichia coli [16]): 0.25 µg/mL (≈ 0.745 µM) | MIC (Escherichia coli [17]): 4 µg/mL | MIC (Escherichia coli [9]): 32 µg/mL (≈ 95.4 µM)

N=C(N)SCc1ccc(Cl)c(Cl)c1
MIC (Escherichia coli [16]): > 32 µg/mL | MIC (Pseudomonas aeruginosa [18]): 4 µg/mL (≈ 17 µM) | MIC (Escherichia coli [19]): > 32 µg/mL | MIC (Pseudomonas aeruginosa [20]): 1 µg/mL (≈ 4.25 µM)

CCC[C@@H]1OC(=O)[C@@H](C)C[C@H](C)CCCCC(=O)CCC[C@@H](CC)CC/C=C(\COC)CC[C@@H](O)[C@@H](O)C[C@H](O)CNC1=O
MIC (Escherichia coli [7]): 3.12 µg/mL (≈ 4.98 µM)

CC(C)=CCc1ccc(Cl)c2[nH]cc(CC3NC(=O)C(Cc4c[nH]c5c(Cl)cccc45)NC(=O)C4CCCN4C(=O)C(CS(=O)(=O)O)NC(=O)C(NC(=O)C(NC(=O)C(C)NC(=O)CC(=O)O)C(C)C)COC(=O)C(CO)NC(=O)C(CC(C)C)NC(=O)C(C(C)C)NC3=O)c12 (configuration not stated) (Malonyl-AVS[Cya]P[Trp(7-Cl)][X1]VLS; ester 3-C; configuration not given here)
MIC (Staphylococcus aureus [4]): 0.5 to 128 µg/mL (≈ 0.357 to 91.4 µM)

CCCCCCCC(=O)N[C@H](C(=O)N[C@@H](CO)C(=O)N[C@H]1CCNC(=O)[C@H]([C@@H](C)O)NC(=O)[C@H](CCN)NC(=O)[C@H](CCN)NC(=O)[C@H](CC(C)C)NC(=O)[C@@H](Cc2ccccc2)NC(=O)[C@H](CCN)NC1=O)[C@@H](C)O (Octanoyl-TS[Dab][Dab][dF]L[Dab][Dab]T; lactam 3-C)
MIC90 (Escherichia coli [21]): 1 µg/mL (≈ 0.929 µM)

Fc1ccc(COc2cccc(-c3n[nH]cc3-c3ccncc3)c2)cc1
MIC (Escherichia coli [16]): < 0.063 µg/mL | MIC (Escherichia coli [17]): 16 µg/mL | MIC (Escherichia coli [9]): 8 µg/mL (≈ 23.2 µM)

CCC[C@@H]1OC(=O)[C@@H](C)C[C@H](C)CCCCC(=O)CCC[C@@H](CC)/C=C/C=C(\COC)CC[C@@H](O)[C@@H](O)C[C@H](O)CNC1=O
MIC (Escherichia coli [7]): 6.25 µg/mL (≈ 10 µM)

CC[C@H](C)[C@@H]1NC(=O)[C@H](Cc2c[nH]c3ccccc23)NC(=O)[C@H]([C@@H](C)O)NC(=O)[C@@H]2CCCN2C(=O)[C@H]2CCCN2C(=O)[C@H](CCN)NC(=O)[C@H](C)NC(=O)[C@H](CCN)NC(=O)[C@H](CCN)NC(=O)[C@H](Cc2c[nH]c3ccccc23)NC(=O)[C@H](CCN)NC(=O)[C@@H](CCN)NC(=O)[C@H](CCCCN)NC(=O)[C@H](CCN)NC1=O (cyclo(TWI[Dab]K[dDab][Dab]W[Dab][Dab]A[Dab][dP]P))
Activity [22]: > 100 µg/mL

CC[C@H](C)[C@@H]1NC(=O)[C@H](CCCNC(=N)N)NC(=O)[C@H](Cc2cc3ccccc3[nH]2)NC(=O)[C@@H]2CCCN2C(=O)[C@H]2CCCN2C(=O)[C@H](CCCNC(=N)N)NC(=O)[C@H](CCCNC(=N)N)NC(=O)[C@H](CC(C)C)NC(=O)[C@H](CCCNC(=N)N)NC(=O)[C@H](CCCCN)NC(=O)[C@H](Cc2c[nH]c3ccccc23)NC(=O)[C@@H](CCCNC(=N)N)NC(=O)[C@H]([C@@H](C)CC)NC(=O)[C@H](CCCNC(=N)N)NC1=O
MIC (Acinetobacter baumannii): 1 µg/mL (≈ 0.507 µM) | MIC (Pseudomonas aeruginosa [23]): 4 µg/mL (≈ 2.03 µM) | MIC (Escherichia coli [9]): 0.25 µg/mL (≈ 0.127 µM) | MIC (Staphylococcus aureus [24]): 2 µg/mL (≈ 1.01 µM)
